Tests used:
chickweed [1] = assay: Test Example 5: herbicidal effect by foliage application, plastic box (Table 20, symbol P); assay type: in vivo, common chickweed (Stellaria media); conditions: foliage application; for herbicidal effect on P: chickweed (criteria 0-5): evaluated three weeks after application
Summary of the method: (§1)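 Foliar spray test: emulsion formulation diluted in water to a set application rate, sprayed onto 14-day-old plants raised in diluvial soil at 25° C to 30° C under glass. Both herbicidal effect and crop effect rated visually three weeks later.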

Japanese bulrush = assay: Test Example 2: herbicidal activity, application during weed generation under submerged conditions (Table 17, symbol B); assay type: in vivo, Japanese bulrush (Schoenoplectus juncoides); conditions: AAH 320 g/ha; application during weed generation, submerged conditions
Summary of the method: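 Alluvial soil in Wagner pots was flooded to 4 cm depth and sown with the three weeds together; pots were kept in a greenhouse at 25° C. to 30° C. At the one to two leaf stage, an emulsion formulation diluted in water to a set rate went onto the water surface; scored three weeks later.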

rice flat sedge = assay: Test Example 3: herbicidal effect by foliage application, Wagner pot (Table 18, symbol E); assay type: in vivo, rice flat sedge (Cyperus iria); conditions: for herbicidal effect on E (rice flat sedge), rating 0-5: 320 g/ha; for herbicidal effect on E: rice flat sedge: amount of applied herbicide 320 g/ha
Summary of the method: (§2)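 Plants were sown in alluvial soil held under 0.1–0.5 cm standing water and grown 14 days in a greenhouse at 25–30 °C. An emulsifiable formulation, water-diluted to the set dose, was then sprayed onto the foliage, and effects were scored three weeks later using previously defined criteria.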

Italian ryegrass = assay: Test Example 5: herbicidal effect by foliage application, plastic box (Table 20, symbol K); assay type: in vivo, Italian ryegrass (Lolium multiflorum); conditions: foliage application; for herbicidal effect on K: Italian ryegrass (criteria 0-5): evaluated three weeks after application
Summary of the method: as §1

redroot pigweed [2] = assay: Test Example 4: herbicidal effect by soil treatment (Table 19, symbol N); assay type: in vivo, redroot pigweed (Amaranthus retroflexus)
Summary of the method: (§3)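 Step 1: sow seeds in sterilized diluvial soil, cover ~1.5 cm. Step 2: spray diluted emulsion onto soil surface at predetermined rate. Step 3: greenhouse, 25–30° C, three weeks. Step 4: grade effect on each plant by earlier criteria.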

barnyard grass [3] = assay: Test Example 3: herbicidal effect by foliage application, Wagner pot (Table 18, symbol H); assay type: in vivo, barnyard grass (Echinochloa crus-galli); conditions: for herbicidal effect on H (barnyard grass), rating 0-5: 320 g/ha; for herbicidal effect on H: barnyard grass: amount of applied herbicide 320 g/ha
Summary of the method: as §2

barnyard grass [4] = assay: Test Example 4: herbicidal effect by soil treatment (Table 19, symbol H); assay type: in vivo, barnyard grass (Echinochloa crus-galli)
Summary of the method: as §3

blackgrass = assay: Test Example 5: herbicidal effect by foliage application, plastic box (Table 20, symbol J); assay type: in vivo, blackgrass (Alopecurus myosuroides); conditions: foliage application; for herbicidal effect on J: blackgrass (criteria 0-5): evaluated three weeks after application
Summary of the method: as §1

redroot pigweed [5] = assay: Test Example 5: herbicidal effect by foliage application, plastic box (Table 20, symbol N); assay type: in vivo, redroot pigweed (Amaranthus retroflexus); conditions: foliage application; for herbicidal effect on N: redroot pigweed (criteria 0-5): evaluated three weeks after application
Summary of the method: as §1

southern crabgrass = assay: Test Example 5: herbicidal effect by foliage application, plastic box (Table 20, symbol F); assay type: in vivo, southern crabgrass (Digitaria ciliaris); conditions: foliage application; for herbicidal effect on F: southern crabgrass (criteria 0-5): evaluated three weeks after application
Summary of the method: as §1

green foxtail [6] = assay: Test Example 5: herbicidal effect by foliage application, plastic box (Table 20, symbol G); assay type: in vivo, green foxtail (Setaria viridis); conditions: foliage application
Summary of the method: as §1

green foxtail [7] = assay: Test Example 4: herbicidal effect by soil treatment (Table 19, symbol G); assay type: in vivo, green foxtail (Setaria viridis)
Summary of the method: as §3

oval-leafed pondweed = assay: Test Example 1: herbicidal activity, application before weed generation under submerged conditions (Table 16, symbol C); assay type: in vivo, oval-leafed pondweed (Monochoria vaginalis); conditions: 320 g/ha applied herbicide
Summary of the method: (§4)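 Submerged Wagner pots (alluvial soil, 4 cm water) sown with weed seeds and planted with 2.5-leaf rice seedlings; emulsifiable concentrate diluted in water applied to water surface on sowing day. Held in greenhouse at 25-30 °C; injury scored 0-5 by herbicidal rate after three weeks.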

late watergrass = assay: Test Example 1: herbicidal activity, application before weed generation under submerged conditions (Table 16, symbol A); assay type: in vivo, late watergrass (Echinochloa oryzicola); conditions: 320 g/ha applied herbicide
Summary of the method: as §4

velvetleaf = assay: Test Example 4: herbicidal effect by soil treatment (Table 19, symbol M); assay type: in vivo, velvetleaf (Abutilon theophrasti)
Summary of the method: as §3

chickweed [8] = assay: Test Example 4: herbicidal effect by soil treatment (Table 19, symbol P); assay type: in vivo, common chickweed (Stellaria media)
Summary of the method: as §3

[9] = AAH 320 g/ha, three weeks after application
[10] = amount of applied herbicide 320 g/ha
[11] = 320 g/ha, three weeks after application
[12] = 320 g/ha, 3 weeks after application

| SMILES | herbicidal effect rating, B: Japanese bulrush (Japanese bulrush) | herbicidal effect on E (rice flat sedge), rating 0-5 (rice flat sedge) | herbicidal effect rating, N: redroot pigweed (redroot pigweed [2]; [10]) | herbicidal effect on H (barnyard grass), rating 0-5 (barnyard grass [3]) | herbicidal effect rating, H: barnyard grass (barnyard grass [4]; [10]) | Herbicidal effect on C: oval-leafed pondweed (grade 0-5) (oval-leafed pondweed) | Herbicidal effect on A: late watergrass (grade 0-5) (late watergrass) | herbicidal effect rating, M: velvetleaf (velvetleaf; [10]) | herbicidal effect on P: chickweed (criteria 0-5) (chickweed [1]; 320 g/ha) | herbicidal effect on E: rice flat sedge (rice flat sedge) | herbicidal effect on K: Italian ryegrass (criteria 0-5) (Italian ryegrass; 320 g/ha) | herbicidal effect on H: barnyard grass (barnyard grass [3]) | herbicidal effect on J: blackgrass (criteria 0-5) (blackgrass; 320 g/ha) | herbicidal effect on N: redroot pigweed (criteria 0-5) (redroot pigweed [5]; 320 g/ha) | herbicidal effect on F: southern crabgrass (criteria 0-5) (southern crabgrass; 320 g/ha) | also measured |
| --- | --- | --- | --- | --- | --- | --- | --- | --- | --- | --- | --- | --- | --- | --- | --- | --- |
| Cc1nn(C)c(=O)c(-c2c(-c3ccc4c(c3)OCCO4)sc3ccccc23)c1O [1-089] | 1 (Herbicidal rate of 5% or more and less than 20%) | 5 (Herbicidal rate of 90% or more (almost completely withered)) | 4 (Herbicidal rate of 70% or more and less than 90%) | 5 (Herbicidal rate of 90% or more (almost completely withered)) | 5 (Herbicidal rate of 90% or more (almost completely withered)) | 4 (Herbicidal rate of 70% or more and less than 90%) | 5 (Herbicidal rate of 90% or more (almost completely withered)) | 2 (Herbicidal rate of 20% or more and less than 40%) |  |  |  |  |  |  |  | P: chickweed, herbicidal effect (chickweed [1]; [9]): 5 (Herbicidal rate of 90% or more (almost completely withered)); K: Italian ryegrass, herbicidal effect (Italian ryegrass; [9]): 5 (Herbicidal rate of 90% or more (almost completely withered)); J: blackgrass, herbicidal effect (blackgrass; [9]): 0 (Herbicidal rate of 5% or less (almost no effect)); N: redroot pigweed, herbicidal effect (redroot pigweed [5]; [9]): 1 (Herbicidal rate of 5% or more and less than 20%); F: southern crabgrass, herbicidal effect (southern crabgrass; [9]): 4 (Herbicidal rate of 70% or more and less than 90%); G: green foxtail, herbicidal effect (green foxtail [6]; [9]): 5 (Herbicidal rate of 90% or more (almost completely withered)); herbicidal effect rating, G: green foxtail (green foxtail [7]; [10]): 5 (Herbicidal rate of 90% or more (almost completely withered)) |
| Cc1nn(C)c(=O)c(-c2c(-c3cccc(OC(C)C)c3)sc3ccc(F)cc23)c1O [2-215] | 0 (Herbicidal rate of 5% or less (almost no effect)) |  |  |  |  | 0 (Herbicidal rate of 5% or less (almost no effect)) | 3 (Herbicidal rate of 40% or more and less than 70%) |  | 5 (Herbicidal rate of 90% or more (almost completely withered)) | 4 (Herbicidal rate of 70% or more and less than 90%) | 5 (Herbicidal rate of 90% or more (almost completely withered)) | 5 (Herbicidal rate of 90% or more (almost completely withered)) | 3 (Herbicidal rate of 40% or more and less than 70%) | 5 (Herbicidal rate of 90% or more (almost completely withered)) | 5 (Herbicidal rate of 90% or more (almost completely withered)) | N: redroot pigweed, herbicidal effect rating (redroot pigweed [2]; [10]): 5 (Herbicidal rate of 90% or more (almost completely withered)); H: barnyard grass, herbicidal effect rating (barnyard grass [4]; [10]): 5 (Herbicidal rate of 90% or more (almost completely withered)); herbicidal effect on G: green foxtail (criteria 0-5) (green foxtail [6]; 320 g/ha, evaluated three weeks after application): 5 (Herbicidal rate of 90% or more (almost completely withered)); G: green foxtail, herbicidal effect rating (green foxtail [7]; [10]): 5 (Herbicidal rate of 90% or more (almost completely withered)); M: velvetleaf, herbicidal effect rating (velvetleaf; [10]): 2 (Herbicidal rate of 20% or more and less than 40%) |
| CCCCCOc1cccc(-c2sc3ccc(F)cc3c2-c2c(O)c(C)nn(C)c2=O)c1 [2-225] | 3 (Herbicidal rate of 40% or more and less than 70%) |  |  |  |  | 3 (Herbicidal rate of 40% or more and less than 70%) | 0 (Herbicidal rate of 5% or less (almost no effect)) |  | 5 (Herbicidal rate of 90% or more (almost completely withered)) | 4 (Herbicidal rate of 70% or more and less than 90%) | 0 (Herbicidal rate of 5% or less (almost no effect)) | 4 (Herbicidal rate of 70% or more and less than 90%) | 0 (Herbicidal rate of 5% or less (almost no effect)) | 5 (Herbicidal rate of 90% or more (almost completely withered)) | 2 (Herbicidal rate of 20% or more and less than 40%) | herbicidal effect on N: redroot pigweed (redroot pigweed [2]; [10]): 5 (Herbicidal rate of 90% or more (almost completely withered)); herbicidal effect on H: barnyard grass (barnyard grass [4]; [10]): 0 (Herbicidal rate of 5% or less (almost no effect)); herbicidal effect on P: chickweed (chickweed [8]; [10]): 0 (Herbicidal rate of 5% or less (almost no effect)); herbicidal effect on G: green foxtail (green foxtail [7]; [10]): 0 (Herbicidal rate of 5% or less (almost no effect)); herbicidal effect on M: velvetleaf (velvetleaf; [10]): 0 (Herbicidal rate of 5% or less (almost no effect)) |
| CCCCOc1ccc(-c2sc3ccccc3c2-c2c(OC(=O)CCC)c(C)nn(C)c2=O)cc1 [1-025] | 3 (Herbicidal rate of 40% or more and less than 70%) | 5 (Herbicidal rate of 90% or more (almost completely withered)) | 5 (Herbicidal rate of 90% or more (almost completely withered)) | 5 (Herbicidal rate of 90% or more (almost completely withered)) | 0 (Herbicidal rate of 5% or less (almost no effect)) | 4 (Herbicidal rate of 70% or more and less than 90%) | 3 (Herbicidal rate of 40% or more and less than 70%) | 0 (Herbicidal rate of 5% or less (almost no effect)) |  |  |  |  |  |  |  | herbicidal effect grade, P: chickweed (chickweed [1]; [11]): 5 (Herbicidal rate of 90% or more (almost completely withered)); herbicidal effect grade, K: Italian ryegrass (Italian ryegrass; [11]): 1 (Herbicidal rate of 5% or more and less than 20%); herbicidal effect grade, J: blackgrass (blackgrass; [11]): 0 (Herbicidal rate of 5% or less (almost no effect)); herbicidal effect grade, N: redroot pigweed (redroot pigweed [5]; [11]): 5 (Herbicidal rate of 90% or more (almost completely withered)); herbicidal effect grade, F: southern crabgrass (southern crabgrass; [11]): 3 (Herbicidal rate of 40% or more and less than 70%); herbicidal effect grade, G: green foxtail (green foxtail [6]; [11]): 3 (Herbicidal rate of 40% or more and less than 70%) |
| C=Cc1ccc(-c2sc3ccc(F)cc3c2-c2c(O)c(C)nn(C)c2=O)cc1 [2-018] | 2 (Herbicidal rate of 20% or more and less than 40%) | 5 (Herbicidal rate of 90% or more (almost completely withered)) |  | 5 (Herbicidal rate of 90% or more (almost completely withered)) |  | 0 (Herbicidal rate of 5% or less (almost no effect)) | 0 (Herbicidal rate of 5% or less (almost no effect)) |  |  |  |  |  |  |  |  | effect on Italian ryegrass (K) (Italian ryegrass; [12]): 4 (Herbicidal rate of 70% or more and less than 90%); herbicidal effect rating, N: redroot pigweed (redroot pigweed [2]; 320 g/ha): 4 (Herbicidal rate of 70% or more and less than 90%); herbicidal effect rating, H: barnyard grass (barnyard grass [4]; 320 g/ha): 0 (Herbicidal rate of 5% or less (almost no effect)); effect on blackgrass (J) (blackgrass; [12]): 1 (Herbicidal rate of 5% or more and less than 20%); herbicidal effect rating, P: chickweed (chickweed [8]; 320 g/ha): 3 (Herbicidal rate of 40% or more and less than 70%); effect on southern crabgrass (F) (southern crabgrass; [12]): 1 (Herbicidal rate of 5% or more and less than 20%); effect on green foxtail (G) (green foxtail [6]; [12]): 5 (Herbicidal rate of 90% or more (almost completely withered)); herbicidal effect rating, G: green foxtail (green foxtail [7]; 320 g/ha): 1 (Herbicidal rate of 5% or more and less than 20%); herbicidal effect rating, M: velvetleaf (velvetleaf; 320 g/ha): 1 (Herbicidal rate of 5% or more and less than 20%) |
